The target in one data set is T1, FXR (Homo sapiens, UniProt Q96RI1).
T1 sequence (Q96RI1 1-486): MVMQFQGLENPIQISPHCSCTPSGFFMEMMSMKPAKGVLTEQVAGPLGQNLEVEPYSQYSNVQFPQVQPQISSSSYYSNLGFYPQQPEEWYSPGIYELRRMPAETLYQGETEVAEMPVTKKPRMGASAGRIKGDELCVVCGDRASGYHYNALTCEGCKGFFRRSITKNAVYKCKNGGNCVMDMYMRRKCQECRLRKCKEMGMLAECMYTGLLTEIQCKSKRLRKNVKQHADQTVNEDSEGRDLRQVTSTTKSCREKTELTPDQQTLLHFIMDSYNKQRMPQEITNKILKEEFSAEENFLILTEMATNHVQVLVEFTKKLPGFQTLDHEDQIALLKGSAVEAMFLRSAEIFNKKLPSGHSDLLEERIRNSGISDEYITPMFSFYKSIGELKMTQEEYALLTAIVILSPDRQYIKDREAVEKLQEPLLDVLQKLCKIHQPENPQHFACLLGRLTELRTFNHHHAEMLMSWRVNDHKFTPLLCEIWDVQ
The experiment in a line: PathHunter NHR protein interaction assay, agonist mode (FXR).

The nature of data set [1]: Pharmacokinetic studies of Example 11 in rats. Format: in vivo, Sprague-Dawley rats. The procedure:
To investigate whether Example 11 is indeed an intestine-selective/specific FXR agonist, its pharmacokinetic profile was evaluated. Male Sprague-Dawley rats (7-week old, 240-260 g) were purchased from Orient Bio. Inc. (Seongnam, Korea). Rats were kept in the cage maintained under a controlled environment (temperature of 23±3° C., relative humidity of 50±5%, and 12 h dark-light cycle) for at least 3 days. Rats were fasted overnight before dose administration. The Example 11 was dissolved in a mixture of DMSO, Tween 80, and 0.9% saline solution (v:v:v, 1:1:8) at a concentration of 2.5 mg/mL for intravenous injection (IV). Also, Example 11 was dissolved in corn oil for oral administration (PO). Rats were divided into two groups; IV group and PO group including at least 6 animals per group. After anesthetized with isoflurane, rats were given the dose of 5 mg/kg via IV injection or 80 mg/kg via PO administration by oral gavage into the stomach. Blood samples (approximately 0.25 mL) were obtained by subclavian vein puncture at 0, 0.033, 0.083, 0.167, 0.333, 0.667, 1, 2, 3, 5, 7, 10, and 24 h after IV injection. After PO administration, blood samples were obtained at 0, 0.083, 0.167, 0.333, 0.667, 1, 2, 3, 5, 7, 10, and 24 h post-dose. Subsequently, blood samples were collected in 1.5-mL Eppendorf tube on an ice. The tubes were centrifuged at 13500 rpm for 15 min at 4° C. to separate the plasma fraction. Then, the plasma samples were stored at […] until HPLC analysis. To prepare the samples for HPLC analysis, 5 μL of Example 11 or Example 24 and 5 μL of internal standard, Example 4 were added to 45 μL of plasma. For extraction, 45 μL of MeCN was added to the mixture. Then, the mixture was vortexed for 2 min and centrifuged at 13500 rpm for 15 min at room temperature. The 60 μL of clear supernatant was transferred to an insert. Then, the HPLC auto-injector was programmed to inject 40 μL of the sample to the HPLC system for analysis. The linearity of the calibration curve was obtained by plotting the peak area ratio (area of Example 11 or area of Example 24/area of Example 4). Pharmacokinetic parameters were calculated by non-compartmental analysis of the plasma concentration-time profiles using Winnonlin® Professional version 8.01 software (Pharsight Corporation, Mountain View, CA). Oral bioavailability (F) was calculated by the ratio of the dose-corrected area under the plasma drug concentration-time curve (AUClast) between oral administration and intravenous injection.

[2] abbreviates: Table 4, 5 concentrations, 3-fold dilution from 3.3 μM (GW4064: 10 conc. from 10 μM), one experiment in duplicate, NA = inactive at 3.3 μM.
The mark [3] stands for this setting: read-out: % max. rel. efficacy, Table 4, relative to GW4064, top conc. 3.3 μM, one experiment in duplicate.
Where [4] appears, read: read-out: % max. rel. efficacy, Table 2, relative to GW4064, top conc. 3.3 μM, one experiment in duplicate.
Setting [5] is: rat, intravenous Example 11, 5 mg/kg.

The results in this text go back to US12522562B2, “Intestine-specific partial agonists of farnesoid X receptor and uses thereof” (EWHA DrugDesignHouse Co., Ltd., priority 2022, dated 2026).

Read-outs that look alike come from different tables or passages of the source.

Procedure for FXR: PathHunter® CHO-K1 FXR protein interaction cells were expanded from freezer stocks according to standard procedures. Cells were seeded in a total volume of 20 μL into white walled, 384-well microplates and incubated at 37° C. for the appropriate time prior to testing. Assay media contained charcoal-dextran filtered serum to reduce the level of hormones present. For agonist determination, cells were incubated with sample to induce response. […] For antagonist determination, cells were pre-incubated with antagonist followed by agonist challenge at the EC80 concentration. […] Microplates were read following signal generation with a PerkinElmer Envision™ instrument for chemiluminescent signal detection. Compound activity was analyzed using CBIS data analysis suite (ChemInnovation, CA). For agonist mode assays, percentage activity was calculated using the following formula: % Activity=100%×(mean RLU of test sample−mean RLU of vehicle control)/(mean MAX control ligand−mean RLU of vehicle control).
In this assay, two weakly complementing fragments of the β-galactosidase are expressed within stably transfected cells. The complementing fragments of the β-galactosidase are translationally fused to the C-terminus of a full-length FXR and to the steroid receptor coactivator peptide (SRCP), respectively. When bound by ligand, the FXR will migrate to the nucleus and recruit the SRCP domain, whereby complementation occurs, generating a unit of active β-galactosidase and production of chemiluminescent signal. Thus, measurement of chemiluminescent signal directly reflects FXR-coactivator interaction.

In turn, `CCOC(=O)/C=C/c1cc(F)cc(N(Cc2ccc(-c3ccc(N(C)C)cc3)c(C#N)c2)C(=O)C2CCCCC2)c1` [Example 12, (E)-3-(3-((2-cyano-4′-dimethylaminobiphenyl-4-ylmethyl)cyclohexanecarbonylamino)-5-fluorophenyl)acrylic acid ethyl ester] returned an EC50 at FXR (setting [2]) of 1000 nM. Further, at FXR (setting [3]), the Emax was found to be 47%.
Consider `COCc1cc(CN(C(=O)C2CCCCC2)c2cccc(/C=C/C(=O)OC)c2)ccc1-c1ccc(N(C)C)cc1` [Example 2, (E)-3-(3-(cyclohexanecarbonyl-(4′-dimethylamino-2-methoxymethylbiphenyl-4-ylmethyl)amino)phenyl)acrylic acid methyl ester], for which the EC50 at FXR was over 10000 nM. On FXR (setting [4]), the Emax amounted to 5%.
`CCOC(=O)/C=C/c1cc(N(Cc2ccc(-c3ccc(N(C)C)cc3)c(C#N)c2)C(=O)C2CCCCC2)ccc1F` [Example 15] showed an EC50 at FXR (setting [2]) of 1300 nM. In addition, the Emax on FXR (setting [3]) came out at 23%.
On to `CN(C)c1ccc(-c2ccc(CN(C(=O)C3CCCCC3)c3cccc(/C=C/C(=O)OC4CC4)c3)cc2C#N)cc1` [Example 23, (E)-3-(3-((2-cyano-4′-dimethylaminobiphenyl-4-ylmethyl)cyclohexanecarbonylamino)phenyl)acrylic Acid Cyclopropyl Ester], for which the EC50 at FXR (setting [2]) is 900 nM. Besides, the Emax on FXR (setting [3]) was 46%.
Regarding `CC(C)OC(=O)/C=C/c1ccc(F)c(N(Cc2ccc(-c3ccc(N(C)C)cc3)c(C#N)c2)C(=O)C2CCCCC2)c1` [Example 22, (E)-3-(3-((2-cyano-4′-dimethylaminobiphenyl-4-ylmethyl)cyclohexanecarbonylamino)-4-fluorophenyl)acrylic acid isopropyl ester], on FXR (setting [3]), the Emax stood at 3%.
Consider `CCOC(=O)/C=C/c1ccc(F)c(N(Cc2ccc(-c3ccc(N(C)C)cc3)c(C#N)c2)C(=O)C2CCCCC2)c1` [Example 21, (E)-3-(3-((2-cyano-4′-dimethylaminobiphenyl-4-ylmethyl)cyclohexanecarbonylamino)-4-fluorophenyl)acrylic acid ethyl ester], for which the EC50 at FXR (setting [2]) came to 1600 nM. Besides, the Emax at FXR (setting [3]) turned out to be 9%.
Taken in the same sequence, the figures for `COC(=O)/C=C/c1ccc(F)c(N(Cc2ccc(-c3ccc(N(C)C)cc3)c(C#N)c2)C(=O)C2CCCCC2)c1` [Example 20, (E)-3-(3-((2-cyano-4′-dimethylaminobiphenyl-4-ylmethyl)cyclohexanecarbonylamino)-4-fluorophenyl)acrylic acid methyl ester] were 1500 nM and 15%.
The compound `CCOC(=O)/C=C/c1cccc(N(Cc2ccc(-c3ccc(N(C)C)cc3)c(C#N)c2)C(=O)C2CCCCC2)c1` [Example 9, (E)-3-(3-((2-cyano-4′-dimethylaminobiphenyl-4-ylmethyl)cyclohexanecarbonylamino)phenyl)acrylic acid ethyl ester] came in with an EC50 at FXR (setting [2]) of 1200 nM. Moreover, on FXR (setting [3]), the Emax came out at 40%.
Take `COC(=O)/C=C/c1cc(F)cc(N(Cc2ccc(-c3ccc(N(C)C)cc3)c(C#N)c2)C(=O)C2CCCCC2)c1` [Example 11, (E)-3-(3-((2-cyano-4′-dimethylaminobiphenyl-4-ylmethyl)cyclohexanecarbonylamino)-5-fluorophenyl)acrylic Acid Methyl Ester]: the bioavailability in data set [1] (male, Sprague-Dawley, plasma, rat, oral 80 mg/kg vs intravenous 5 mg/kg, dose-corrected AUClast ratio, read-out: F (oral bioavailability)) was 4%. The compound also displayed an AUC(0-t) in data set [1] (male, Sprague-Dawley, rat plasma, oral dose of Example 11, 80 mg/kg in corn oil) of 1500 ± 600 ng·h/mL. In data set [1] (setting [5]), the “detected in plasma until (time after administration)” value amounted to 20 min and the “metabolism after intravenous administration” value is “rapidly metabolized to the corresponding carboxylic acid, Example 24”. The “detected after (time after oral administration)” value in data set [1] (rat, oral Example 11, 80 mg/kg) is on record as 5 h. The compound also came in with an EC50 at FXR (setting [2]) of 900 nM. Also, the “% max. rel. efficacy” value on FXR (Table 5, relative to GW4064, mean ± SEM of two or three independent experiments in duplicate) is recorded as 53 ± 3^c* %. For the same compound, the Emax on FXR (setting [3]) was determined as 56%. The Emax on FXR (read-out: % max. rel. efficacy, Table 5, relative to GW4064, mean ± SEM of two or three independent experiments in duplicate) came to 53 ± 3%.
`COC(=O)/C=C/c1cccc(N(Cc2ccc(-c3ccc(N(C)C)cc3C#N)c(C#N)c2)C(=O)C2CCCCC2)c1` [Example 8, (E)-3-(3-(cyclohexanecarbonyl-(2,2′-dicyano-4′-dimethylaminobiphenyl-4-ylmethyl)-amino)phenyl)acrylic acid methyl ester] yielded an EC50 on FXR (setting [2]) of 1600 nM. The Emax on FXR (setting [3]) was 10%.
Taken in the same sequence, the figures for `COC(=O)/C=C/c1cccc(N(Cc2ccc(-c3ccc(N(C)C)cc3Cl)c(C#N)c2)C(=O)C2CCCCC2)c1` [Example 7, (E)-3-(3-((2′-chloro-2-cyano-4′-dimethylaminobiphenyl-4-ylmethyl)cyclohexane-carbonylamino)phenyl)acrylic acid methyl ester] were 1200 nM and 21%.
Taken in the same sequence, the figures for `COC(=O)/C=C/c1cccc(N(Cc2ccc(-c3ccc(N(C)C)cc3F)c(C#N)c2)C(=O)C2CCCCC2)c1` [Example 6, (E)-3-(3-((2-cyano-4′-dimethylamino-2′-fluorobiphenyl-4-ylmethyl)cyclohexanecarbonylamino)phenyl)acrylic Acid Methyl Ester] were 900 nM and 42%.
Compound `CC(C)OC(=O)/C=C/c1cc(F)cc(N(Cc2ccc(-c3ccc(N(C)C)cc3)c(C#N)c2)C(=O)C2CCCCC2)c1` [Example 13, (E)-3-(3-((2-cyano-4′-dimethylaminobiphenyl-4-ylmethyl)cyclohexanecarbonylamino)-5-fluorophenyl)acrylic acid isopropyl ester] had an EC50 at FXR (setting [2]) of 800 nM. For the same compound, the Emax on FXR (setting [3]) came to 20%.
As to `COC(=O)/C=C/c1cccc(N(Cc2ccc(-c3ccc(N(C)C)cc3)c(C#N)c2)C(=O)C2CCCCC2)c1F` [Example 17, (E)-3-(3-((2-cyano-4′-dimethylaminobiphenyl-4-ylmethyl)cyclohexanecarbonylamino)-2-fluorophenyl)acrylic acid methyl ester], a half-maximal effect on FXR (setting [2]) (EC50) was put at 1300 nM. On FXR (setting [3]), the Emax was found to be 19%.
As for `CC(C)OC(=O)/C=C/c1cccc(N(Cc2ccc(-c3ccc(N(C)C)cc3)c(C#N)c2)C(=O)C2CCCCC2)c1F` [Example 19, (E)-3-(3-((2-cyano-4′-dimethylaminobiphenyl-4-ylmethyl)cyclohexanecarbonylamino)-2-fluorophenyl)acrylic acid isopropyl ester], the Emax at FXR (setting [3]) is 42%.
`COC(=O)/C=C/c1cccc(N(Cc2ccc(-c3ccc(N(C)C)cc3)c(CO)c2)C(=O)C2CCCCC2)c1` [Example 1, (E)-3-(3-(cyclohexanecarbonyl-(4′-dimethylamino-2-hydroxymethylbiphenyl-4-ylmethyl)amino)phenyl)acrylic acid methyl ester]: the Emax on FXR (setting [4]) turned out to be 1%.
Consider `COC(=O)/C=C/c1cccc(N(Cc2ccc(-c3ccc(N(C)C)cc3)c(C3OCCO3)c2)C(=O)C2CCCCC2)c1` [Example 3, (E)-3-(3-(cyclohexanecarbonyl-(4′-dimethylamino-2-[1,3]dioxolan-2-ylbiphenyl-4-ylmethyl)amino)phenyl)acrylic acid methyl ester], for which the Emax on FXR (setting [4]) amounted to 3%.
For the compound `COC(=O)/C=C/c1cc(N(Cc2ccc(-c3ccc(N(C)C)cc3)c(C#N)c2)C(=O)C2CCCCC2)ccc1F` [Example 14], the response at FXR (setting [2]) was half-maximal at 1500 nM (EC50). Also, the Emax on FXR (setting [3]) turned out to be 23%.

A word on the EC50: it is the concentration giving half of the maximal effect. Read a high EC50 as weaker potency. What is called bioavailability is dose-corrected exposure relative to a reference, in per cent. Broadly, the AUC(0-t) is the area under the concentration-time curve up to a stated or last time point. A low value points to low exposure.
